Where a name gives a salt, the structure may show the parent alone.

The target in one experiment is Btk enzyme (His-Btk) (Homo sapiens (Human), UniProt Q06187). The experiment in a line: Btk enzyme activity, IMAP fluorescence polarization assay (Assay Method A).
Sequence of Btk enzyme (His-Btk) (Q06187 whole entry): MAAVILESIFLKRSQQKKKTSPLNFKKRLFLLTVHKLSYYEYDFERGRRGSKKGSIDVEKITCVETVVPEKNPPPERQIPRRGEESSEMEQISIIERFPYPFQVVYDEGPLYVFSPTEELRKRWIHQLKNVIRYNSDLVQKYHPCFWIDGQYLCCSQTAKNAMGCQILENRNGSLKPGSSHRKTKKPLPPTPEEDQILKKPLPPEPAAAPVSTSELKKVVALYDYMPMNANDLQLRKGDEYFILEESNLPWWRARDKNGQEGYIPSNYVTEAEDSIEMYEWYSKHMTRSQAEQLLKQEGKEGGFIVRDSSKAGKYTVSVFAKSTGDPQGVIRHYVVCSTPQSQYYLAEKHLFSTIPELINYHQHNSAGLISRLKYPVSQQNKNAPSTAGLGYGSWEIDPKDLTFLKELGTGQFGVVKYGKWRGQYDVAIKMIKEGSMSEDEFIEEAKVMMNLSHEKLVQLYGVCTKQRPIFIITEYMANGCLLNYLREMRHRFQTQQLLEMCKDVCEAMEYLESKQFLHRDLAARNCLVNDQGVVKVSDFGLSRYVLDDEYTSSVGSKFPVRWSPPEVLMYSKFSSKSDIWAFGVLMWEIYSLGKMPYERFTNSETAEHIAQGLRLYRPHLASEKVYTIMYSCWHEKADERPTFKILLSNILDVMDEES
Settings: not given
As to `CC1(C)CC(c2nc(-c3ccc(C(=O)Nc4ccccn4)cc3)c3c(N)nccn23)CCO1` (stereo not drawn) [Example 35, 4-(8-amino-3-(2,2-dimethyltetrahydro-2H-pyran-4-yl)imidazo[1,5-a]pyrazin-1-yl)-N-(pyridin-2-yl)benzamide], the EC50 lay in the range of 10 to 100 nM.

Molecule `CC1(C)CC(c2nc(-c3ccc(C(=O)Nc4cc(C#N)ccn4)cc3)c3c(N)nccn23)CCO1` (stereo not drawn) [Example 37, 4-(8-amino-3-(2,2-dimethyltetrahydro-2H-pyran-4-yl)imidazo[1,5-a]pyrazin-1-yl)-N-(4-cyanopyridin-2-yl)benzamide] came in with an EC50 of 10 to 100 nM.

In the case of `CCc1cnc(NC(=O)c2ccc(-c3nc([C@H]4CC[C@H](OC(C)=O)CC4)n4ccnc(N)c34)cc2)s1` [Example 38, (trans)-4-(8-amino-1-(4-(5-ethylthiazol-2-ylcarbamoyl)phenyl)imidazo [1,5-a]pyrazin-3-yl)cyclohexyl acetate], the EC50 lay within 10 to 100 nM.

`CCc1cnc(NC(=O)c2ccc(-c3nc([C@H]4CC[C@@H](OC)CC4)n4ccnc(N)c34)cc2)s1` [Example 39, 4-(8-amino-3-((cis)-4-methoxycyclohexyl)imidazo [1,5-a]pyrazin-1-yl)-N-(5-ethylthiazol-2-yl)benzamide] registered an EC50 of 10 to 100 nM.

For the molecule `CO[C@H]1CC[C@@H](c2nc(-c3ccc(C(=O)Nc4cc(C#N)ccn4)cc3)c3c(N)nccn32)CC1` [Example 41, 4-(8-amino-3-((cis)-4-methoxycyclohexyl)imidazo [1,5-a]pyrazin-1-yl)-N-(4-cyanopyridin-2-yl)benzamide], the EC50 was less than 10 nM.

Consider `N#Cc1ccnc(NC(=O)c2ccc(-c3nc(C4CCCC4)n4ccnc(N)c34)cc2)c1` [Example 44, 4-(8-amino-3-cyclopentylimidazo[1,5-a]pyrazin-1-yl)-N-(4-cyanopyridin-2-yl)benzamide, TFA salt], for which the EC50 is less than 10 nM.

The molecule `CCC(=O)N1CCC[C@@H](c2nc(-c3ccc(C(=O)Nc4ccccn4)cc3)c3c(N)nccn23)C1` [Example 46, (R)-4-(8-amino-3-(1-propionylpiperidin-3-yl)imidazo[1,5-a]pyrazin-1-yl)-N-(pyridin-2-yl)benzamide] displayed an EC50 of less than 10 nM.

`CS(=O)(=O)N1CCC[C@@H](c2nc(-c3ccc(C(=O)Nc4ccccn4)cc3)c3c(N)nccn23)C1` [Example 49, (R)-4-(8-amino-3-(1-(methylsulfonyl)piperidin-3-yl)imidazo[1,5-a]pyrazin-1-yl)-N-(pyridin-2-yl)benzamide] displayed an EC50 of 100 to 1000 nM.

For the molecule `COCCC(=O)N1CCC[C@@H](c2nc(-c3ccc(C(=O)Nc4ccccn4)cc3)c3c(N)nccn23)C1` [Example 50, (R)-4-(8-amino-3-(1-(3-methoxypropanoyl)piperidin-3-yl)imidazo[1,5-a]pyrazin-1-yl)-N-(pyridin-2-yl)benzamide], the 50% effective concentration (EC50) was less than 10 nM.

Consider `CN(C)CCCC(=O)N1CCC[C@@H](c2nc(-c3ccc(C(=O)Nc4ccccn4)cc3)c3c(N)nccn23)C1` [Example 51, (R)-4-(8-amino-3-(1-(4-(dimethylamino)butanoyl)piperi-din-3-yl)imidazo[1,5-a]pyrazin-1-yl)-N-(pyridin-2-yl)benzamide], for which the EC50 was in the range of 10 to 100 nM.

For `Nc1nccn2c([C@@H]3CCCN(C(=O)C4CC4)C3)nc(-c3ccc(C(=O)Nc4ccccn4)cc3)c12` [Example 52, (R)-4-(8-amino-3-(1-(cyclopropanecarbonyl)piperidin-3-yl)imidazo[1,5-a]pyrazin-1-yl)-N-(pyridin-2-yl)benzamide], the concentration giving a half-maximal response (EC50) is less than 10 nM.

The molecule `Nc1nccn2c([C@@H]3CCCN(C(=O)CO)C3)nc(-c3ccc(C(=O)Nc4ccccn4)cc3)c12` [Example 53, (R)-4-(8-amino-3-(1-(2-hydroxyacetyl)piperidin-3-yl)imidazo[1,5-a]pyrazin-1-yl)-N-(pyridin-2-yl)benzamide] had an EC50 of 10 to 100 nM.

The molecule `NCCCCC(=O)N1CCC[C@@H](c2nc(-c3ccc(C(=O)Nc4ccccn4)cc3)c3c(N)nccn23)C1` [Example 54, (R)-4-(8-amino-3-(1-(5-aminopentanoyl)piperidin-3-yl)imidazo[1,5-a]pyrazin-1-yl)-N-(pyridin-2-yl)benzamide] came in with an EC50 of 10 to 100 nM.

In turn, `Nc1nccn2c([C@@H]3CCCN(C(=O)[C@H]4CC[C@H](N)CC4)C3)nc(-c3ccc(C(=O)Nc4ccccn4)cc3)c12` [Example 55, 4-(8-amino-3-((R)-1-((trans)-4-aminocyclohexanecarbonyl)piperidin-3-yl)imidazo[1,5-a]pyrazin-1-yl)-N-(pyridin-2-yl)benzamide, TFA salt] returned an EC50 of 10 to 100 nM.

`Nc1nccn2c([C@@H]3CCCN(C(=O)C4CCOC4)C3)nc(-c3ccc(C(=O)Nc4ccccn4)cc3)c12` (stereo partly drawn) [Example 56, 4-(8-amino-3-((3R)-1-(tetrahydrofuran-3-carbonyl)piperidin-3-yl)imidazo[1,5-a]pyrazin-1-yl)-N-(pyridin-2-yl)benzamide, TFA salt] showed an EC50 of 10 to 100 nM.

On to `CO[C@@H](C)C(=O)N1CCC[C@@H](c2nc(-c3ccc(C(=O)Nc4ccccn4)cc3)c3c(N)nccn23)C1` [Example 57, 4-(8-amino-3-((R)-1-((S)-2-methoxypropanoyl)piperidin-3-yl)imidazo[1,5-a]pyrazin-1-yl)-N-(pyridin-2-yl)benzamide], for which the EC50 was 10 to 100 nM.

`CC[C@H](C)C(=O)N1CCC[C@@H](c2nc(-c3ccc(C(=O)Nc4ccccn4)cc3)c3c(N)nccn23)C1` [Example 58, 4-(8-amino-3-((R)-1-((S)-2-methylbutanoyl)piperidin-3-yl)imidazo[1,5-a]pyrazin-1-yl)-N-(pyridin-2-yl)benzamide] showed an EC50 of 10 to 100 nM.

`Nc1nccn2c([C@@H]3CCCN(C(=O)C4CCC4)C3)nc(-c3ccc(C(=O)Nc4cc(C5CC5)ccn4)cc3)c12` [Example 59, (R)-4-(8-amino-3-(1-(cyclobutanecarbonyl)piperidin-3-yl)imidazo[1,5-a]pyrazin-1-yl)-N-(4-cyclopropylpyridin-2-yl)benzamide] returned a concentration giving a half-maximal response (EC50) of less than 10 nM.

The molecule `CCC(=O)N1CCC[C@@H](c2nc(-c3ccc(C(=O)Nc4cc(C5CC5)ccn4)cc3)c3c(N)nccn23)C1` [Example 60, (R)-4-(8-amino-3-(1-propionylpiperidin-3-yl)imidazo[1,5-a]pyrazin-1-yl)-N-(4-cyclopropylpyridin-2-yl)benzamide] came in with an EC50 of less than 10 nM.

Turning to `COCCC(=O)N1CCC[C@@H](c2nc(-c3ccc(C(=O)Nc4cc(C5CC5)ccn4)cc3)c3c(N)nccn23)C1` [Example 61, (R)-4-(8-amino-3-(1-(3-methoxypropanoyl)piperidin-3 yl)imidazo[1,5-a]pyrazin-1-yl)-N-(4-cyclopropylpyridin-2-yl)benzamide], the EC50 was less than 10 nM.

As to `CC1CC1C(=O)N1CCC[C@@H](c2nc(-c3ccc(C(=O)Nc4cc(C5CC5)ccn4)cc3)c3c(N)nccn23)C1` (stereo partly drawn) [Example 62, 4-(8-amino-3-((3R)-1-(2-methylcyclopropanecarbonyl)piperidin-3-yl)imidazo[1,5-a]pyrazin-1-yl)-N-(4-cyclopropylpyridin-2-yl)benzamide], the concentration giving a half-maximal response (EC50) was less than 10 nM.

As for `CCNC(=O)N1CCC[C@@H](c2nc(-c3ccc(C(=O)Nc4cc(C5CC5)ccn4)cc3)c3c(N)nccn23)C1` [Example 63, (R)-3-(8-amino-1-(4-(4-cyclopropylpyridin-2-ylcarbamoyl)phenyl)imidazo [1,5-a]pyrazin-3-yl)-N-ethylpiperidine-1-carboxamide], the concentration giving a half-maximal response (EC50) was less than 10 nM.

The same experiment, now with this note: read-out: EC50 Btk activity values - Assay Method A; IMAP-FP, 60 min pre-incubation, 5 μM ATP; class 100-1000 is given as ≧100 nM-<1 μM.
With `CC1(C)CC(c2nc(-c3ccc(C(=O)Nc4cc(C(F)(F)F)ccn4)cc3)c3c(N)nccn23)CCO1` (stereo not drawn) [Example 34, 4-(8-amino-3-(2,2-dimethyltetrahydro-2H-pyran-4-yl)imidazo[1,5-a]pyrazin-1-yl)-N-(4-(trifluoromethyl)pyridin-2-yl)benzamide], the EC50 is less than 10 nM.

In the case of `CCCc1ccnc(NC(=O)c2ccc(-c3nc(C4CCOC(C)(C)C4)n4ccnc(N)c34)cc2)c1` (stereo not drawn) [Example 36, 4-(8-amino-3-(2,2-dimethyltetrahydro-2H-pyran-4-yl)imidazo[1,5-a]pyrazin-1-yl)-N-(4-propylpyridin-2-yl)benzamide], the EC50 was less than 10 nM.

Turning to `CO[C@H]1CC[C@@H](c2nc(-c3ccc(C(=O)Nc4cc(C(F)(F)F)ccn4)cc3)c3c(N)nccn32)CC1` [Example 40, 4-(8-amino-3-((cis)-4-methoxycyclohexyl)imidazo [1,5-a]pyrazin-1-yl)-N-(4-(trifluoromethyl)pyridin-2-yl)benzarnide], the EC50 is less than 10 nM.

Turning to `CCCc1ccnc(NC(=O)c2ccc(-c3nc([C@H]4CC[C@@H](OC)CC4)n4ccnc(N)c34)cc2)c1` [Example 42, 4-(8-amino-3-((cis)-4-methoxycyclohexyl)imidazo [1,5-a]pyrazin-1-yl)-N-(4-propylpyridin-2-yl)benzamide], the EC50 is less than 10 nM.

Consider `Nc1nccn2c(C3CCCC3)nc(-c3ccc(C(=O)Nc4cc(C(F)(F)F)ccn4)cc3)c12` [Example 43, 4-(8-amino-3-cyclopentylimidazo[1,5-a]pyrazin-1-yl)-N-(4-(trifluoromethyl)pyridin-2-yl)benzamide, TFA salt], for which the concentration for a half-maximal effect (EC50) was less than 10 nM.

As for `Nc1nccn2c(C3CCCC3)nc(-c3ccc(C(=O)Nc4ccccn4)cc3)c12` [Example 45, 4-(8-amino-3-cyclopentylimidazo[1,5-a]pyrazin-1-yl)-N-(pyridin-2-yl)benzamide, TFA salt], the 50% effective concentration (EC50) is less than 10 nM.

With `CCOC(=O)N1CCC[C@@H](c2nc(-c3ccc(C(=O)Nc4ccccn4)cc3)c3c(N)nccn23)C1` [Example 47, (R)-ethyl 3-(8-amino-1-(4-(pyridin-2-ylcarbamoyl)phenyl)imidazo[1,5-a]pyrazin-3-yl)piperidine-1-carboxylate], the EC50 is less than 10 nM.

As to `CCNC(=O)N1CCC[C@@H](c2nc(-c3ccc(C(=O)Nc4ccccn4)cc3)c3c(N)nccn23)C1` [Example 48, (R)-3-(8-amino-1-(4-(pyridin-2-ylcarbamoyl)phenyl)imidazo[1,5-a]pyrazin-3-yl)-N-ethylpiperidine-1-carboxamide], the EC50 is less than 10 nM.

The record behind these values is patent publication US9718828B2 (MERCK SHARP & DOHME CORP., priority 2011, dated 2017).
